IC50 and Kd data for 20 molecules are collected here from patent US20130261077A1 (priority 2012, published 2013).

As usually defined, the IC50 is the point on the concentration scale where inhibition reaches its midpoint. Broadly, the Kd is the constant that tells how readily two partners part at equilibrium. Read a high Kd as a looser complex.

The target of this test is T1, FimH-CRD (Escherichia coli, UniProt P08191).
T1 construct: The first 177 amino acids of the FimH protein; thrombin tag (printed as 'fusion protein with thrombin') (cleaved yes); made in house; host or cells: bacteria (pET21b plasmid)
T1 sequence (P08191 22-177): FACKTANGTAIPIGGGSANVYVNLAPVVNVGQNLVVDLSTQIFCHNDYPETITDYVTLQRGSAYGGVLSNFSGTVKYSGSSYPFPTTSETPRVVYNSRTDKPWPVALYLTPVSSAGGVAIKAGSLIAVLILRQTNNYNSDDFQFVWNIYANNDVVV
The test is described as follows: Competitive binding assay by fluorescence polarization, assay 1 (compounds prepared by manual serial dilution). The protocol:
The first 177 amino acids of the FimH protein were expressed as a fusion protein with thrombin in a pET21b plasmid in bacteria. This FimH protein sequence contains the carbohydrate recognition domain (CRD) and shall be termed FimH-CRD. Following bacterial expression of the protein, the FimH-CRD protein was purified to homogeneity and the thrombin tag removed by protease cleavage. A competitive binding assay by fluorescence polarization was performed using 5 nM of the Alexa 647 mannoside probe and 60 nM of the FimH-CRD. The samples are assayed in a low volume 384 well microtiter plate in a final volume of 20 μl. The final assay buffer conditions are the following, 50 mM Tris-Cl, ph 7.0, 100 mM NaCl, 1 mM EDTA, 5 mM β-mercaptoethanol, 0.05% BSA and 2.5% DMSO. Two assays are performed for FimH, termed assay 1 or assay 2. The assay conditions are the same for both assays except the following: assay 1 has compounds prepared by manual dilution in a serial dilution factor with 12-point dose response while assay 2 has compounds prepared by a robotics system also through a serial dilution factor (12 point dose response) and initially prepared in duplicate in 384 well-Corning polypropylene round bottom plates. The assay 2 plates have compound which is then frozen and must be thawed prior to use. Initially the Alexa 647 probe and the FimH-CRD are added to the assay buffer and then 0.5 μl of test compound (assay 1 or 2) between 0.4 nM to 75 μM final concentration are added (12 point titration with 3-fold serial dilution). Control wells for the Alexa 647 probe are prepared with the same conditions except for the addition of the FimH-CRD protein. Plates are then incubated for 5 hrs at room temperature in the dark and under humid conditions to prevent drying. Plates are read using the SpectraMax Paradigm multi-mode plate reader and the appropriate fluorescent polarization detection cartridge (Alexa-647).
Alexa 647 mannoside probe is prepared using the similar procedure reported for FAM mannoside (Han, Z. et. al., 2010, J. Med. Chem., 53, 4779) and is described in the scheme below.
To a blue colored stirred solution of (2S,3S,4S,5S,6R)-2-(4-aminobutoxy)-6-(hydroxymethyl)tetrahydropyran-3,4,5-triol (2.21 mg, 0.009 mmol) and the (2E)-2-[(2E,4E)-5-[3,3-dimethyl-5-sulfonato-1-(3-sulfonatopropyl)indol-1-ium-2-yl]penta-2,4-dienylidene]-3-[6-(2,5-dioxopyrrolidin-1-yl)oxy-6-oxo-hexyl]-3-methyl-1-(3-sulfonatopropyl)indoline-5-sulfonate (Potassium Ion (3)) (4.9 mg, 0.0044 mmol) in DMF (44 μL) is added Et3N (5.4 mg, 7.0 μL, 0.053 mmol) at RT. The solution is stirred at room temperature over night, concentrated, dissolved in water and purified on 12 g C-18 silica gel cartridge on Isolera system using acetonitrile in water (0 to 40%, 10 CV) and followed by lyophilization to afford Alexa 647 mannoside probe (3.3 mg, 34%) as deep blue solid.
The Kd values of the compounds are determined from dose response curves using twelve concentrations per compound in duplicate. Curves are fitted to data points using Fluorescence Polarization competitive displacement analysis, and Kds are interpolated from the resulting curves using GraphPad Prism software, version […] (GraphPad software Inc., San Diego, Calif., USA).
As to `OC[C@H]1O[C@H](c2cccc(Oc3ccc(F)cc3)c2)[C@@H](O)[C@@H](O)[C@@H]1O` [Compound 57, (2R,3S,4R,5S,6R)-2-[3-(4-fluorophenoxy)phenyl]-6-(hydroxymethyl)tetrahydropyran-3,4,5-triol], the IC50 stood at 76 nM and binding was characterised by a dissociation constant (Kd) of 13.2 ± 0.2 nM.

Take `Cc1cc(C)cc(Oc2cccc([C@H]3O[C@H](CO)[C@@H](O)[C@H](O)[C@@H]3O)c2)c1` [Compound 58, (2R,3S,4R,5S,6R)-2-[3-(3,5-dimethylphenoxy)phenyl]-6-(hydroxymethyl)tetrahydropyran-3,4,5-triol]: the IC50 amounted to 66 nM and the affinity, expressed as Kd, was 11.1 ± 1.6 nM.

`OC[C@H]1O[C@H](c2cccc(Oc3ccccc3)c2)[C@@H](O)[C@@H](O)[C@@H]1O` [Compound 59, (2R,3S,4R,5S,6R)-2-(hydroxymethyl)-6-(3-phenoxyphenyl)tetrahydropyran-3,4,5-triol] registered a half-maximal inhibitory concentration (IC50) of 26 nM and a Kd of 6.3 ± 0.9 nM.

As for `COc1ccc([C@H]2O[C@H](CO)[C@@H](O)[C@H](O)[C@@H]2O)cc1O` [Compound 61, (2R,3S,4R,5S,6R)-2-(3-hydroxy-4-methoxy-phenyl)-6-(hydroxymethyl)tetrahydropyran-3,4,5-triol], the IC50 was 42 nM and the Kd came to 17.2 ± 10.7 nM.

`CNC(=O)c1cc(C(=O)NC)cc(-c2cccc([C@H]3O[C@H](CO)[C@@H](O)[C@H](O)[C@@H]3O)c2)c1` [Compound 63, N^3,N^5-dimethyl-3′-((2R,3S,4R,5S,6R)-3,4,5-trihydroxy-6-(hydroxymethyl)tetrahydro-2H-pyran-2-yl)-[1,1′-biphenyl]-3,5-dicarboxamide] showed an IC50 of 19 nM and a Kd of 25.4 ± 14.4 nM.

As to `COC(=O)Cc1cccc(-c2cccc([C@H]3O[C@H](CO)[C@@H](O)[C@H](O)[C@@H]3O)c2)c1` [Compound 65, Methyl 2-(3′-((2R,3S,4R,5S,6R)-3,4,5-trihydroxy-6-(hydroxymethyl)tetrahydro-2H-pyran-2-yl)-[1,1′-biphenyl]-3-yl)acetate], the IC50 was 18 nM and the affinity, expressed as Kd, was 5.2 ± 0.1 nM.

For the molecule `COC(=O)Cc1ccccc1-c1cccc([C@H]2O[C@H](CO)[C@@H](O)[C@H](O)[C@@H]2O)c1` [Compound 66, Methyl 2-(3′-((2R,3S,4R,5S,6R)-3,4,5-trihydroxy-6-(hydroxymethyl)tetrahydro-2H-pyran-2-yl)-[1,1′-biphenyl]-2-yl)acetate], the IC50 was 24 nM and the Kd stood at 14.3 ± 6.6 nM.

`OC[C@H]1O[C@H](c2ccc(Cl)c(O)c2)[C@@H](O)[C@@H](O)[C@@H]1O` [Compound 67, (2R,3S,4R,5S,6R)-2-(4-chloro-3-hydroxyphenyl)-6-(hydroxymethyl)tetrahydro-2H-pyran-3,4,5-triol] yielded a half-inhibitory concentration (IC50) of 106 nM and a Kd of 21 ± 4.3 nM.

With `O=C(Nc1cccs1)Oc1cccc([C@H]2O[C@H](CO)[C@@H](O)[C@H](O)[C@@H]2O)c1` [Compound 69, 3-((2R,3S,4R,5S,6R)-3,4,5-trihydroxy-6-(hydroxymethyl)tetrahydro-2H-pyran-2-yl)phenyl thiophen-2-ylcarbamate], the IC50 was found to be 66 nM and binding was characterised by a dissociation constant (Kd) of 13.1 ± 0.7 nM.

`O=C(Nc1ccc(F)cc1)Oc1cccc([C@H]2O[C@H](CO)[C@@H](O)[C@H](O)[C@@H]2O)c1` [Compound 70, 3-((2R,3S,4R,5S,6R)-3,4,5-trihydroxy-6-(hydroxymethyl)tetrahydro-2H-pyran-2-yl)phenyl (4-fluorophenyl)carbamate] displayed an IC50 of 46 nM and a Kd of 11.6 ± 4.2 nM.

For the molecule `CN(C)c1ccc(NC(=O)Oc2cccc([C@H]3O[C@H](CO)[C@@H](O)[C@H](O)[C@@H]3O)c2)cc1` [Compound 71, 3-((2R,3S,4R,5S,6R)-3,4,5-trihydroxy-6-(hydroxymethyl)tetrahydro-2H-pyran-2-yl)phenyl (4-(dimethylamino)phenyl)carbamate], the IC50 was determined as 67 nM and the affinity, expressed as Kd, was 14.6 ± 2.3 nM.

`C[C@@H](NC(=O)Oc1cccc([C@H]2O[C@H](CO)[C@@H](O)[C@H](O)[C@@H]2O)c1)c1ccccc1` [Compound 72, 3-((2R,3S,4R,5S,6R)-3,4,5-trihydroxy-6-(hydroxymethyl)tetrahydro-2H-pyran-2-yl)phenyl (R)-1-phenylethylcarbamate] came in with an IC50 of 60 nM and a Kd of 16.2 ± 5.4 nM.

In the case of `OC[C@H]1O[C@H](c2cccc(C#Cc3cc(Cl)cc(Cl)c3)c2)[C@@H](O)[C@@H](O)[C@@H]1O` [Compound 92, (2R,3S,4R,5S,6R)-2-[3-[2-(3,5-Dichlorophenyl)ethynyl]phenyl]-6-(hydroxymethyl)tetrahydropyran-3,4,5-triol], binding was put at a Kd of 24.9 ± 11.3 nM.

Regarding `COc1ccc([C@H]2O[C@H](CO)[C@@H](O)[C@H](O)[C@@H]2O)cc1-c1ccc(-c2nnc(C)o2)cc1` [Compound 132, (2R,3S,4R,5S,6R)-2-(hydroxymethyl)-6-[4-methoxy-3-[4-(5-methyl-1,3,4-oxadiazol-2-yl)phenyl]phenyl]tetrahydropyran-3,4,5-triol], the Kd is 6.9 ± 0.02 nM.

On to `Cc1nnc(-c2ccc(C#Cc3cccc([C@H]4O[C@H](CO)[C@@H](O)[C@H](O)[C@@H]4O)c3)cc2)o1` [Compound 133, (2R,3S,4R,5S,6R)-2-(hydroxymethyl)-6-[3-[2-[4-(5-methyl-1,3,4-oxadiazol-2-yl)phenyl]ethynyl]phenyl]tetrahydropyran-3,4,5-triol], for which the Kd turned out to be 6.1 ± 1.4 nM.

In turn, `Cc1nnc(-c2ccc(C#Cc3ccc([C@H]4O[C@H](CO)[C@@H](O)[C@H](O)[C@@H]4O)cc3)cc2)o1` [Compound 134, (2R,3S,4R,5S,6R)-2-(hydroxymethyl)-6-[4-[2-[4-(5-methyl-1,3,4-oxadiazol-2-yl)phenyl]ethynyl]phenyl]tetrahydropyran-3,4,5-triol] had a Kd of 54.2 ± 17 nM.

As to `OC[C@H]1O[C@H](c2cccc(/C=C\c3ccccc3)c2)[C@@H](O)[C@@H](O)[C@@H]1O` [Compound 139, (2R,3S,4R,5S,6R)-2-(hydroxymethyl)-6-[3-[(Z)-styryl]phenyl]tetrahydropyran-3,4,5-triol], the Kd is less than 5 nM.

In turn, `CNC(=O)c1cccc(COc2ccc(C3O[C@H](CO)[C@@H](O)[C@H](O)[C@@H]3O)cc2)c1` (stereo partly drawn) [Compound 248] gave a Kd of 14 ± 8.4 nM.

Consider `CNC(=O)c1ccc2nc(Oc3cccc([C@H]4O[C@H](CO)[C@@H](O)[C@H](O)[C@@H]4O)c3)sc2c1` [Compound 255, N-methyl-2-[3-[(2R,3S,4R,5S,6R)-3,4,5-trihydroxy-6-(hydroxymethyl)tetrahydropyran-2-yl]phenoxy]-1,3-benzothiazole-6-carboxamide], for which binding was characterised by a dissociation constant (Kd) of 8.7 ± 2 nM.

Molecule `OC[C@H]1O[C@H](O[C@@H]2[C@H](O)[C@@H](c3cccc(O)c3)O[C@H](CO)[C@H]2O)[C@@H](O)[C@@H](O)[C@@H]1O` [Compound 265, (2R,3S,4S,5S,6R)-2-[(2R,3R,4R,5R,6R)-3,5-Dihydroxy-2-(hydroxymethyl)-6-(3-hydroxyphenyl)tetrahydropyran-4-yl]oxy-6-(hydroxymethyl)tetrahydropyran-3,4,5-triol] displayed an IC50 of 162 nM and a Kd of 52.1 ± 13.8 nM.
